In PubChem BioAssay (NCI):
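Protocol summary: plate cells (96-well), add compound at 5 concentrations, incubate 48 h, interpolate endpoints linearly. The concentration for 50% growth inhibition is given as GI50. The concentration for full growth arrest is given as TGI.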

Tests used:
Assay in all cases: NCI tumour cell line growth inhibition, 48 h
[1] = test system: UACC-62 melanoma
[2] = test system: CCRF-CEM leukemia
[3] = test system: HCT-116 colon
[4] = test system: NCI-H460 lung
[5] = test system: M14 melanoma
[6] = test system: EKVX NSCLC
[7] = test system: DU-145 prostate
[8] = test system: CAKI-1 renal
[9] = test system: ACHN renal
[10] = test system: NCI-H522 lung

SMILES	GI50 [1] [µM]	TGI [1] [µM]	GI50 [2] [µM]	TGI [2] [µM]	GI50 [3] [µM]	TGI [3] [µM]	GI50 [4] [µM]	TGI [4] [µM]	GI50 [5] [µM]	TGI [5] [µM]	GI50 [6] [µM]	TGI [6] [µM]	GI50 [7] [µM]	TGI [7] [µM]	GI50 [8] [µM]	TGI [8] [µM]	GI50 [9] [µM]	TGI [9] [µM]	GI50 [10] [µM]	TGI [10] [µM]
COc1ccc2c(c1)/C(=C\c1c(-c3ccccc3)nc3sccn13)C(=O)N2	3.52	15.6	5.5	> 100	1.43	8.19	7.08	> 24.4	7.11	18.4	12.1	> 43.6	3.01	12.6	0.0357	0.37	1.23	14.7	27	67.3
COc1ccc(OC)c(-c2cc(-c3ccc(Cl)cc3)nn2-c2ccccc2)c1	11.2	55.3	8.57	> 100	–	–	33.8	> 100	14.8	45.6	82.8	> 100	96.7	> 100	24.2	66.9	46.2	> 100	12.6	> 100
CCCCCCCC(=O)Nc1nc2[nH]c(CN3CCN(Cc4cccc(I)c4)CC3)c(CN3CCN(Cc4cccc(I)c4)CC3)c2c(=O)[nH]1	0.901	1.66	1.25	3.22	0.848	1.59	0.925	1.76	0.882	1.77	0.835	1.67	0.913	1.73	0.816	1.49	0.892	1.61	0.901	1.95
CC(=O)CCc1ccc(Oc2c3ccccc3nc3occc23)cc1	–	–	24.1	94.7	19.1	79.5	15.6	31.9	15.3	29.2	–	–	14.8	34.1	18.2	42	19.1	49.6	26.9	> 100
Cn1cnc(SC2=CC(=O)C=C3S[C@H]4C[C@@]23c2c(c(O)c3c5c2=NCCC=5C=N3)N4)c1CC(N)C(=O)O (stereo partly drawn)	7.31	19.6	3.76	44.1	2.24	4.88	16.2	31.6	15.1	28.6	19.3	34.3	–	32	18.7	33.3	15.6	29.1	2.42	5.74
CO[C@H]1/C=C/O[C@@]2(C)Oc3c(C)c(O)c4c(O)c(c(/C=N/N5C(C)CN(Cc6ccc(C#N)cc6)CC5C)c(O)c4c3C2=O)NC(=O)/C(C)=C\C=C\[C@H](C)[C@H](O)[C@@H](C)[C@@H](O)[C@@H](C)[C@H](OC(C)=O)[C@@H]1C (stereo partly drawn)	3.88	10.4	2.12	12.3	5.41	12.7	5.76	14.1	7.6	16.2	4.26	39.4	8.16	15.3	7.65	17.8	7.89	16.2	6.22	22
O=C(Nc1ccc(Cl)cc1)c1cc(NCc2cc(O)ccc2O)ccc1O	2.06	5.3	0.605	6.79	3.48	18.2	13.3	33.2	10.5	27.1	5.5	23.7	13.2	26.9	4.09	18.2	3.37	15.1	0.488	1.88
O=C(N/N=C/c1ccc([N+](=O)[O-])cc1)c1ccccc1Nc1ccnc(C(F)(F)F)c1	13.3	38.3	> 100	> 100	20	70.2	21.3	52.9	19.2	58.7	14.6	59.5	11.9	45.5	13.5	36.4	7.89	73	12.5	38.3
Oc1cccc2ccc(SSc3ccc4cccc(O)c4n3)nc12	–	39.4	–	> 100	–	41.1	–	42.6	–	33.3	–	> 100	–	> 100	–	37.3	–	29.7	–	38.2
Cc1ccc(NC(=O)CCc2nnc3s/c(=C\C=C\c4ccccc4)c(=O)n23)cc1	–	> 100	–	74.3	–	> 100	–	> 100	–	> 100	–	> 100	–	> 100	–	> 100	–	> 100	–	> 100
CC1(C)N=C(N)N=C(N)N1c1cccc(CCCCc2ccc(Cl)c(S(=O)(=O)F)c2)c1	0.732	17.2	0.764	17.6	0.457	13.5	0.938	14.5	3.21	17.4	11.4	39.8	4.09	17.1	21.3	> 100	20.9	> 100	1.26	18.8
COc1cccc(/C=C2\N=C(Cl)OC2=O)c1O	–	> 100	–	> 100	–	> 100	–	> 100	–	> 100	–	> 100	–	> 100	–	> 100	–	> 100	–	> 100
O=C(O)c1nn(-c2ccc(Cl)cc2)c2c1C(=O)c1ccccc1C2=O	–	> 100	–	> 100	–	> 100	–	> 100	–	63.9	–	> 100	–	> 100	–	> 100	–	> 100	–	> 100
Oc1ccc(Br)cc1C=NC1CCCCC1	–	> 100	–	> 100	–	48.8	–	> 100	–	> 100	–	> 100	–	> 100	–	> 100	–	> 100	–	> 100
O=c1cccccc1O	–	> 100	–	82.5	–	> 100	–	> 100	–	> 100	–	> 100	–	> 100	–	> 100	–	> 100	–	> 100
